We go through one compound from US20100048921A1, “PHARMACEUTICALLY ACTIVE COMPOUNDS” (priority 2007, published 2010).

In this assay the test system is thrombocytes (platelet-rich plasma). In words: Collagen-induced thrombocyte aggregation in platelet-rich plasma (aggregometry, PAP-8E). In kind it is cell-based, human. The following applies: for End point (FA) / Maximum aggregation (MA): substance 50 μM. How it is done:
The substances used, genistein, glu-glu, DMSO, ala-ala were provided by the company Sigma-Aldrich, Munich. For the measurement, the Platelet Aggregation Profiler Model PAP-8E of the company Bio/Data Corporation, an 8-channel aggregometer with a computerised digital curve creation, has been used.
After the taking of a blood sample from a large calibre vein in unbuffered citrate 10%, the whole blood which is achieved by this is centrifugated with about 1,500 RPM for 10 min. The platelet-rich plasma (PRP) which is achieved by this then has to rest for 45 min. at ambient temperature. At the same time, […] for the creation of the respective blank values is gained from the same sample with common centrifugation. For the measurement, cuvettes with a volume of 0.25 ml are used.
Stock solutions of the substances to be tested, including genistein as well as the peptides ala-ala and glu-glu which are used, are prepared in a ratio of 1 mg on 1 ml, genistein as well as the tested coupling products in DMSO, glu-glu and ala-ala in H2O.

Where [1] appears, read: collagen 1 μg/ml, listed as genistein.

As for `O=c1c(-c2ccc(O)cc2)coc2cc(O)cc(O)c12` [Genistein, genistein], the “active concentration which starts to be effective” value (collagen-induced aggregation, own specification) came out at 50 µM. For the same compound, the “aggregation of the platelets” value (genistein 50 μM, collagen 1 μg/ml, reference (no additive) 90%) was found to be 82%. This compound yielded an aggregation (genistein 100 μM, collagen 1 μg/ml, reference (no additive) 90%) of 50%. Besides, the thrombocyte aggregation result (genistein 200 μM, collagen 1 μg/ml) was “almost completely inhibited”. Under “collagen 1 μg/ml”, the “End point (FA)” value is 82% and the “Maximum aggregation (MA)” value was found to be 85%. Under setting [1], the “End point (FA)” value was found to be 82% and the “Maximum aggregation (MA)” value worked out at 85%.
